Measurements from patent US7723301B2, “Pharmaceutical compositions comprising an anti-teratogenic compound and applications of the same” (The Board of Trustees of the University of Arkansas, priority 2007, dated 2010).

Legend:
chicken embryos = assay: Inhibitors counteracting thalidomide-induced limb truncations and microphthalmia in chicken embryos; format: in vivo
Description: Fertilized eggs were purchased from Deindl GmbH, Rietberg-Varensell. They were incubated at 38° C. in a humidified incubator, windowed after one day and staged according to Hamburger and Hamilton (HH stage). Racemic thalidomide (Celgene), thalidomide enantiomers or phthalimide (Sigma) were dissolved in DMSO at 5 mg/ml and further diluted in PBS. Embryos were exposed to drugs by dropping 15 μg-3 mg thalidomide or phthalimide per kg egg weight (about 1-200 μg per embryo) in 50 μl DMSO/PBS as a single dose at HH stages 0-13 onto the embryo. Thalidomide (50 μg) or phthalimide (50 μg) in 10 μl DMSO was injected into the extra-embryonic blood vessels of HH 19 stage embryos. LiCl (99% pure, Sigma) was dissolved in sterile PBS. LiCl (0.1, 0.6 or 3.2 mg) was applied at HH stages 17-19 by dropping 500 μl of a 5 mM, 28 mM or 151 mM LiCl solution onto the embryo. Recombinant Noggin, Dkk1 specific goat IgG (R&D Systems) or serum of non-immunized goats (Sigma) was dissolved in 0.1% BSA/0.01% Fast Green/PBS. Noggin (10 or 100 ng), Dkk1 specific goat IgG (5 or 50 ng) or serum of non-immunized goats (50 ng) was applied to a single embryo at HH stages 17-19 by injecting a 10 μl solution through the extra-embryonic membranes.
The morphology of the limbs was studied in specimens fixed in 5% trichloroacetic acid and stained for cartilage with alcian green as described (3).

[1] = system: human embryonic fibroblasts (HEFs); assay: Cell death by trypan blue staining in HEFs; format: cell-based
Description: (§1) Primary limb bud cells (PLBCs) were isolated from 60 pooled wing and hindlimb buds of HH stages 23/24 embryos. Fibroblasts were gained from HH stage 34 chicken embryos or from 13.5 d.p.c. mouse embryos. Human embryonic fibroblasts were provided by Matthias Maass (2). Before adding reagents, all cell types were cultured for 16 hours in D-MEM (Gibco) plus 10% fetal calf serum (FCS) and 2% chicken serum. Treatment with thalidomide, phthalimide, recombinant human (rh) BMP4 (300 ng/ml; R&D Systems), juglone (5 μM; Sigma), recombinant mouse Noggin (30, 300, 1000 ng/ml in FIG. 4B; 300 ng/ml in FIGS. 4C and 6A), anti-human-DKK1 antibody (35, 350 and 1000 ng/ml in FIG. 4B; 350 ng/ml in FIGS. 4C and 6A), LiCl (3, 30, 60 mM in FIG. 4B; 30 mM in FIGS. 4C, 6A and 6C) and/or (2Z,3E)-6-Bromoindirubin-3-oxime (BIO, Gsk3-Inhibitor IX; 50, 500, 1000 nM in FIG. 4B; 500 nM in FIG. 6A; 50 and 500 nM in FIG. 6C; Calbiochem) were performed in Optimem1 (Invitrogen) plus 1% FCS. Unless otherwise noted, all treatments with thalidomide and rh-BMP4 and associated controls were done for six hours. Inhibitors were applied once at the beginning of incubation with the exception of LiCl that was added 150 minutes before harvesting the cells for further analyses. Pre-treatment with phenyl-N-t-butylnitrone (PBN; 2 mM; Sigma) was performed for one hour. Incubations with juglone were performed for two hours, if applicable, after a pre-treatment with PBN, Noggin, anti-Dkk1 antibody, LiCl or Gsk3-Inhibitor IX for one hour.
Cell death in PLBCs, CEFs, MEFs and HEFs was detected by staining with trypan blue (0.1% (w/v) in PBS; Sigma) for 90 seconds. Cells were counted in a counting chamber to determine the ratio of dead to live cells.

[2] = system: Bmp4 and Dkk1 expression in HEFs; assay: sqRT-PCR of Bmp4 and Dkk1 expression in HEFs; format: cell-based, human; settings: 10 μg/ml, six hours
Description: as §1
RNA isolation, semi-quantitative RT-PCRs and whole mount in situ hybridizations were performed according to standard protocols that are well known within the art. RNA was isolated using TRIZOL (Gibco BRL) followed by DNAseI digestion. First strand synthesis was carried out with the Expand RT System (Roche) according to the manufacturer's instructions. PCR amplification was carried out primers and conditions within the knowledge of a person having skill in the relevant art. Quantifications were performed using NIH Image 1.62.

β-catenin [3] = assay: Sub-cellular localization of β-catenin in HEFs; format: cell-based, human; settings: in the presence of Wnt3a; about 70% with Wnt3a alone
Description: (§2) CEFs or HEFs attached on cover slips were incubated with Wnt3a-conditioned medium including thalidomide or solvent or with control medium for five hours. β-catenin was detected by using a mouse anti-β-catenin antibody (1:500, BD Transduction Laboratories), an anti-mouse Cy3-coupled secondary antibody (Dianova) and fluorescence microscopy. Afterwards, a DAPI staining was performed as a control. Quantification was done by counting the nuclei with a clear fluorescent signal in relation to the number of DAPI-stained nuclei.

β-catenin [4] = assay: Sub-cellular localization of β-catenin in CEFs; format: cell-based, chicken; settings: in the presence of Wnt3a, data not shown
Description: as §2

In the case of `O=C1CCC(N2C(=O)c3ccccc3C2=O)C(=O)N1` (racemic) [thalidomide, 2-(2,6-dioxo-3-piperidyl)isoindole-1,3-dione], the “embryos with limb truncations, thalidomide-treated control embryos” value (chicken embryos; control of the anti-Dkk1 antibody experiment (FIG. 7B)) is reported as 15%, the “embryos with microphthalmia, thalidomide-treated control embryos” value (chicken embryos; in vivo) is reported as 23% and the “embryos with limb truncations, thalidomide treatment” value (chicken embryos; survived to day seven (FIG. 7A)) is reported as 19%. For the same compound, the “potential to induce PCD in HEFs” value [1] was “very similar to that in chicken embryonic cells”, the EC50 ([1]; Homo sapiens, Fibroblast, 6 h, treated for six hours, read-out: EC50 for induction of apoptosis (PCD) in HEFs) was 8.9 µM and the “expression of Bmp4 and Dkk1 in HEFs” value [2] was “induced the expression”. For the same compound, the “HEFs positive for nuclear β-catenin” value (β-catenin [3]) was 10% and the “number of CEFs positive for nuclear β-catenin” value (β-catenin [4]) was “dramatic reduction”.
